Values quoted from earlier work as cited in patent US9492541B2, “Phenylepherine containing dosage form” (SOVEREIGN PHARMACEUTICALS, LLC, priority 2004, dated 2016).

Details: oral

In the case of `CNC[C@H](O)c1cccc(O)c1` [phenylepherine], the “period over which a single dose provides a therapeutically effective plasma concentration” value is given as 2.5 ± 0.7 h.
